Experimental data published in ChEMBL document CHEMBL1212919, “An efficient approach to the discovery of potent inhibitors against glycosyltransferases” (J Med Chem, 2010).

Assays:
[1] = target: T1, CMP-N-acetylneuraminate-beta-1,4-galactoside alpha-2,3-sialyltransferase (Rattus norvegicus, UniProt Q02734); assay: Inhibition of rat recombinant alpha 2,3-(N)-sialyltransferase 3
T1 sequence (Q02734 whole entry): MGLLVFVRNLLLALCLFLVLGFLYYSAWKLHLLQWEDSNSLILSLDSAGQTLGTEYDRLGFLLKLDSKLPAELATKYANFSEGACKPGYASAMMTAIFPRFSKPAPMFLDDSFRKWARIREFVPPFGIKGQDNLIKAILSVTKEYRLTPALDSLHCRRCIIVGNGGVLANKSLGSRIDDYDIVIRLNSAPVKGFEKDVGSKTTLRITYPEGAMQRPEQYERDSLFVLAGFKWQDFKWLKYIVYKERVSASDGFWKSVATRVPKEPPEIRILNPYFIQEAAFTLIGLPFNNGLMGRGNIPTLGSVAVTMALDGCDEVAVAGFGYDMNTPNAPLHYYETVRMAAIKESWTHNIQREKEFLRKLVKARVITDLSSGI

[2] = species on record: Rattus norvegicus
[3] = Inhibition of alpha-(1,3)-fucosyltransferase after 60 mins by Lineweaver-Burke plot analysis
[4] = Inhibition of alpha-(1,6)-fucosyltransferase after 60 mins by Lineweaver-Burke plot analysis

Question: With `C[C@]12CC[C@@H]3c4ccc(O)cc4CC[C@H]3[C@@H]1CC[C@@]2(O)c1cn(CC(=O)N[C@H]2[C@H]([C@H](O)[C@H](O)CO)O[C@](OP(=O)(O)OC[C@H]3O[C@@H](n4ccc(N)nc4=O)[C@H](O)[C@@H]3O)(C(=O)O)C[C@@H]2O)nn1` as the compound, how does the IC50 [1] read?
Answer: The IC50 was 8.2 µM.

Question: And the Km [2]?
Answer: Its Km is 125 µM.

Question: With `C[C@]12CC[C@@H]3c4ccc(O)cc4CC[C@H]3[C@@H]1CC[C@@]2(O)c1cn(C[C@@H]2O[C@H](OP(=O)(O)OP(=O)(O)OC[C@H]3O[C@@H](n4cnc5c(=O)[nH]c(N)nc54)[C@H](O)[C@@H]3O)[C@@H](O)[C@H](O)[C@@H]2O)nn1` as the compound, how does the Ki [3] read?
Answer: The Ki was 0.293 µM.

Question: Which Ki [4] does the source give for `CCCCCc1ccc(-c2cn(C[C@@H]3O[C@H](OP(=O)(O)OP(=O)(O)OC[C@H]4O[C@@H](n5cnc6c(=O)[nH]c(N)nc65)[C@H](O)[C@@H]4O)[C@@H](O)[C@H](O)[C@@H]3O)nn2)cc1` here?
Answer: The Ki was 13.8 µM.
